Results taken from ChEMBL document CHEMBL4507268 (2021).

How the values were obtained:
[1] = biological target: Serine/threonine-protein kinase mTOR (Homo sapiens) (UniProt P42345); conditions: Compound concentration 1000.0 nM
[2] = biological target: Casein kinase II subunit alpha (Homo sapiens) (UniProt P68400); conditions: Compound concentration 1000.0 nM
[3] = biological target: T1, Muscle, skeletal receptor tyrosine-protein kinase (Homo sapiens) (UniProt O15146); conditions: Compound concentration 1000.0 nM
T1 sequence (whole entry): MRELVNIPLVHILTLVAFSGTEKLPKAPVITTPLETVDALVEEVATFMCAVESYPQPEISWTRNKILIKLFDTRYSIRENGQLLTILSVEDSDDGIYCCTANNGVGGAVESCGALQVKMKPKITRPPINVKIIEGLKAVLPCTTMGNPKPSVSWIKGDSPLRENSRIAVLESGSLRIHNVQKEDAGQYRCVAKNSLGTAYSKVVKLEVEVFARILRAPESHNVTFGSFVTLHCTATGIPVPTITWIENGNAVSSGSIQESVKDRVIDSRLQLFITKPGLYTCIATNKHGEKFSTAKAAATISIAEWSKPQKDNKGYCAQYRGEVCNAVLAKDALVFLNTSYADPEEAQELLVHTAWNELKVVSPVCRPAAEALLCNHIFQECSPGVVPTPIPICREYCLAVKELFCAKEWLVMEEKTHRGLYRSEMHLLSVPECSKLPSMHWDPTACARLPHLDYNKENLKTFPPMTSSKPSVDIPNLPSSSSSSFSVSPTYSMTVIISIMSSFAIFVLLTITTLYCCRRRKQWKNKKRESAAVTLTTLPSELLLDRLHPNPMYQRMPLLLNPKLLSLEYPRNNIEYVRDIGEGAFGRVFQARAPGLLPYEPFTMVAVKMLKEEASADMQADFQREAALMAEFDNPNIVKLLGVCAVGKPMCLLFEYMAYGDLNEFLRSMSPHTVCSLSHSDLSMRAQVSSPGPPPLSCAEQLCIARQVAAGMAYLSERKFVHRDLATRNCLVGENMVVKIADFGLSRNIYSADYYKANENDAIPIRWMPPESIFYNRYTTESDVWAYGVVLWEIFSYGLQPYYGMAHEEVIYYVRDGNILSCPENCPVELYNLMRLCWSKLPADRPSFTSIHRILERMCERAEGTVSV

[4] = biological target: Mitogen-activated protein kinase kinase kinase 13 (Homo sapiens) (UniProt O43283); conditions: Compound concentration 1000.0 nM
[5] = tested on: SNU-449; experiment: Proliferation assay: SNU-449 (hepatocellular carcinoma); format: functional, cell-based; conditions: Homo sapiens
[6] = biological target: Serine/threonine-protein kinase PLK2 (Homo sapiens) (UniProt Q9NYY3); conditions: Compound concentration 1000.0 nM
[7] = biological target: Transient receptor potential cation channel subfamily M member 6 (Homo sapiens) (UniProt Q9BX84); conditions: Compound concentration 1000.0 nM
[8] = biological target: Serine/threonine-protein kinase MARK1 (Homo sapiens) (UniProt Q9P0L2); conditions: Compound concentration 1000.0 nM
[9] = tested on: Tyrosine-protein kinase ABL1 (Homo sapiens), P00519 [E255K]; conditions: Compound concentration 1000.0 nM
[10] = biological target: Serine/threonine-protein kinase ULK1 (Homo sapiens) (UniProt O75385); conditions: Compound concentration 1000.0 nM
[11] = biological target: Ribosomal protein S6 kinase alpha-5 (Homo sapiens) (UniProt O75582); conditions: Compound concentration 1000.0 nM
[12] = biological target: T2, Protein kinase C epsilon type (Homo sapiens) (UniProt Q02156); conditions: Compound concentration 1000.0 nM
T2 sequence (whole entry): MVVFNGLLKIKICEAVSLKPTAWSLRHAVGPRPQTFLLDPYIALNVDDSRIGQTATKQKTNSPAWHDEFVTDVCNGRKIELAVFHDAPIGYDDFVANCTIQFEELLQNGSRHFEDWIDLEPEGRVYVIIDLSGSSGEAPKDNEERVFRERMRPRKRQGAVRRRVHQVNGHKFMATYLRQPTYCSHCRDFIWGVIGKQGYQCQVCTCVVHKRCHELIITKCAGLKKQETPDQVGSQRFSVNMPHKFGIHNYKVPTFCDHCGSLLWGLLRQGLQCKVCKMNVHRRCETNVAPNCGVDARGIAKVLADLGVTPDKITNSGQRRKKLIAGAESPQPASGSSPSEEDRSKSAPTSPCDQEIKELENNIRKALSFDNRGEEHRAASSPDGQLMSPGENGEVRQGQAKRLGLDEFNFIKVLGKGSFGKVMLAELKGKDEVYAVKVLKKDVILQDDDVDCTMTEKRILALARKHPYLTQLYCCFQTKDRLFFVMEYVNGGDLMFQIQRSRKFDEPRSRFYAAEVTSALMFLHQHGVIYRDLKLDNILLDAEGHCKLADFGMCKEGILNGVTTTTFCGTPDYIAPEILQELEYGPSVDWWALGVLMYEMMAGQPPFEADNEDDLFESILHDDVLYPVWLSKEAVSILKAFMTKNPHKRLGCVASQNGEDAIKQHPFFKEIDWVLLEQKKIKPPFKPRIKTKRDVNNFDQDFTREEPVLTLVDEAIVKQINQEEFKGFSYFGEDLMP

[13] = biological target: Mu-type opioid receptor (Homo sapiens) (UniProt P35372); conditions: Compound concentration 10.0 uM
[14] = biological target: Myosin-IIIa (Homo sapiens) (UniProt Q8NEV4); conditions: Compound concentration 1000.0 nM
[15] = biological target: Cyclin-dependent kinase 4 (Homo sapiens) (UniProt P11802); conditions: Compound concentration 1000.0 nM
[16] = biological target: GABA-A receptor; anion channel (Rattus norvegicus) (UniProt O09028+P15431+P18506+P18508+P19969+P20236+P23574+P23576+P28471+P28473+P30191+P62813+P63079+P63138+Q91ZM7+Q9ES14); conditions: Compound concentration 10.0 uM

Sequence of Serine/threonine-protein kinase ULK1 (Homo sapiens) (O75385 whole entry): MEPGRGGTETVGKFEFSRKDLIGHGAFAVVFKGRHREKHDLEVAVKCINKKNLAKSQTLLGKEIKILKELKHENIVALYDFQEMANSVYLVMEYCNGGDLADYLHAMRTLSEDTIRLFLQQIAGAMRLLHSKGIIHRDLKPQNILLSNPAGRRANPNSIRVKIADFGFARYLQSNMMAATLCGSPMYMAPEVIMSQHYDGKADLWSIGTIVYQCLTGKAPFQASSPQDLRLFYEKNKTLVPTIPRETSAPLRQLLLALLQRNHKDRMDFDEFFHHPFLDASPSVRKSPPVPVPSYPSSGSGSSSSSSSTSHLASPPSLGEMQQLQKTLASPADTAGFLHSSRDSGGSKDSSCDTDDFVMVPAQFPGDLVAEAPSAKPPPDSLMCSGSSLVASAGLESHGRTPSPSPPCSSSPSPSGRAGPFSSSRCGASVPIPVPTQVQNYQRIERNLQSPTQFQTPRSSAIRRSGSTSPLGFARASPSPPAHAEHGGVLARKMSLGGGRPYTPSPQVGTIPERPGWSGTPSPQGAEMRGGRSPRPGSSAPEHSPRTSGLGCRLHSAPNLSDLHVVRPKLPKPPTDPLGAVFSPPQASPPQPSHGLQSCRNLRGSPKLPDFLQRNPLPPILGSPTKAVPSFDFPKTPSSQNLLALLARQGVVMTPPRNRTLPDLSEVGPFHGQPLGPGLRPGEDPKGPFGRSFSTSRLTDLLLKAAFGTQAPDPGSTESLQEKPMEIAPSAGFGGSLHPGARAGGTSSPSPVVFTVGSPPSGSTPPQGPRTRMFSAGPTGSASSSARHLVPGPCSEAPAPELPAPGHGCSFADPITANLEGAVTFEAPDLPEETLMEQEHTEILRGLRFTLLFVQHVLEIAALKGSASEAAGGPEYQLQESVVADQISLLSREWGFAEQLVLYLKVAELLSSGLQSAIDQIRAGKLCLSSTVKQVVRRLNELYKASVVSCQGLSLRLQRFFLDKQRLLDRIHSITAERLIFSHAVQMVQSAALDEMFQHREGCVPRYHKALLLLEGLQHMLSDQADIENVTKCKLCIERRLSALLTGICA
Sequence of Cyclin-dependent kinase 4 (Homo sapiens) (P11802 whole entry): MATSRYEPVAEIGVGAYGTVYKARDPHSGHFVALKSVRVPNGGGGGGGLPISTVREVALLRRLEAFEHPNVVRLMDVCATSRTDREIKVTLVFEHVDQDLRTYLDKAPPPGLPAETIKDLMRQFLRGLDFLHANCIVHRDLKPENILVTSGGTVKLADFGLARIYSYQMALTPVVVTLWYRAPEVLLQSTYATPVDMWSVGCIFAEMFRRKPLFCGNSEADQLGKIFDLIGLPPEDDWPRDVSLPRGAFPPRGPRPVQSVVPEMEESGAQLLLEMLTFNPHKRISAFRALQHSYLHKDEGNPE
Sequence of Mitogen-activated protein kinase kinase kinase 13 (Homo sapiens) (O43283 whole entry): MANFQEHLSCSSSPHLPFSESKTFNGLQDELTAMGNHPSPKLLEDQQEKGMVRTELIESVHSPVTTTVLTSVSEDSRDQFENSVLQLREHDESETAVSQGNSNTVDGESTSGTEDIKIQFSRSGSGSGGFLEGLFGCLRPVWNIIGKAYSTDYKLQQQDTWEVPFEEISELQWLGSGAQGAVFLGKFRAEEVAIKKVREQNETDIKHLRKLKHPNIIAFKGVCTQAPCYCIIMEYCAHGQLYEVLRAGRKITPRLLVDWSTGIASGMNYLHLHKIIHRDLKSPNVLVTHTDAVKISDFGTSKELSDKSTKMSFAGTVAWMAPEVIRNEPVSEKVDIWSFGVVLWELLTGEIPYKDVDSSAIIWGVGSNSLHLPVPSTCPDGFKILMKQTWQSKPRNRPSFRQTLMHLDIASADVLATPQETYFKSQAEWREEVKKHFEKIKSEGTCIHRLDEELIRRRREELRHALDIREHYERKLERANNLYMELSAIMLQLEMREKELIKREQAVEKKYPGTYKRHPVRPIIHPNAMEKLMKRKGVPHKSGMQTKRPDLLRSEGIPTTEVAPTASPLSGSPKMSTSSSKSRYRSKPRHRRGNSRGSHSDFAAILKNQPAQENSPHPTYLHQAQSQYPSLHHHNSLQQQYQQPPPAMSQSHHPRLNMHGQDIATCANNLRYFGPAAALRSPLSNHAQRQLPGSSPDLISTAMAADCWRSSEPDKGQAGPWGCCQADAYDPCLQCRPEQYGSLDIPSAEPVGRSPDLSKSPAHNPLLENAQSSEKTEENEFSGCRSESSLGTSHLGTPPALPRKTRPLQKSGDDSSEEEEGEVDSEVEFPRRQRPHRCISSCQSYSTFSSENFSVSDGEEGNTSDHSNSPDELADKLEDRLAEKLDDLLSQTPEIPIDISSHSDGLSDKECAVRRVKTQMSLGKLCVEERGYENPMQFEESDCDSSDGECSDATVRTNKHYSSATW
Sequence of Ribosomal protein S6 kinase alpha-5 (Homo sapiens) (O75582 whole entry, looked up): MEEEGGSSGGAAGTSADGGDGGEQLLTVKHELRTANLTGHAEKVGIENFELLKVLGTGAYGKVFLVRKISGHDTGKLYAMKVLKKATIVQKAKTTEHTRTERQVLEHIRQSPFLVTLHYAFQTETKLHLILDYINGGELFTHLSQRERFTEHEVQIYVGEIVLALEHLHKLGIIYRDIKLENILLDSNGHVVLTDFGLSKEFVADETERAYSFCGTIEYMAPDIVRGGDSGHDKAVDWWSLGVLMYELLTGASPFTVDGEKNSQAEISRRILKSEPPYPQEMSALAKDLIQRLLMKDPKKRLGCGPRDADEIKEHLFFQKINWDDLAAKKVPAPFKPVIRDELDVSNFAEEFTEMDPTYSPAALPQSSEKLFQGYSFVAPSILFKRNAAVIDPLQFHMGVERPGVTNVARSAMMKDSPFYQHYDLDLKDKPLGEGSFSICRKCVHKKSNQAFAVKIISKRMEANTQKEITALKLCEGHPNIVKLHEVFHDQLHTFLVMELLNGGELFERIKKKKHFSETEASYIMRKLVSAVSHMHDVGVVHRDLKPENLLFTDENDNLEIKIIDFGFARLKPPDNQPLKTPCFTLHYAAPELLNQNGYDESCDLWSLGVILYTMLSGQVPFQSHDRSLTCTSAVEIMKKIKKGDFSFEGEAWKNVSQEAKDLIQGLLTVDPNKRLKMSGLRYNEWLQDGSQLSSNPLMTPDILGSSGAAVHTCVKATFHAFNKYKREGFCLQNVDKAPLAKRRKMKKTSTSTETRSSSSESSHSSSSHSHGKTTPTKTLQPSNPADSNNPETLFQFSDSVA
Sequence of Serine/threonine-protein kinase PLK2 (Homo sapiens) (Q9NYY3 whole entry, looked up): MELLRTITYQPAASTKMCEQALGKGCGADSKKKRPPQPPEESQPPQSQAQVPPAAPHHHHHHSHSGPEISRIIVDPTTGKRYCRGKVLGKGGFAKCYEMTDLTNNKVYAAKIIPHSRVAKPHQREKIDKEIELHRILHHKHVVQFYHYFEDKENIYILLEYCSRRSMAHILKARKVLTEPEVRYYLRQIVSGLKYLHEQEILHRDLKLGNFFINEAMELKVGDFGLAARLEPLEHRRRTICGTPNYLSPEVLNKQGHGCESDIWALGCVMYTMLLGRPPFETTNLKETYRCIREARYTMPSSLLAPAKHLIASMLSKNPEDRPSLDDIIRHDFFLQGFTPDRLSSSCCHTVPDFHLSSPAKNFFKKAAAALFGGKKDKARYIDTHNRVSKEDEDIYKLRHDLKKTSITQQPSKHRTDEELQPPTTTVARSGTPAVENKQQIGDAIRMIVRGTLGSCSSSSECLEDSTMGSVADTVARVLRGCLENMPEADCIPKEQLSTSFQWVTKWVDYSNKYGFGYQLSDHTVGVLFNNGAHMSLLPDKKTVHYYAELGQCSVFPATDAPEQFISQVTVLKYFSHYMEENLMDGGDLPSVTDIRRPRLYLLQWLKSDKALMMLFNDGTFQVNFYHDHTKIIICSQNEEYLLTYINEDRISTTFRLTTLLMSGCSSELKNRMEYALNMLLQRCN
Sequence of Casein kinase II subunit alpha (Homo sapiens) (P68400 whole entry, looked up): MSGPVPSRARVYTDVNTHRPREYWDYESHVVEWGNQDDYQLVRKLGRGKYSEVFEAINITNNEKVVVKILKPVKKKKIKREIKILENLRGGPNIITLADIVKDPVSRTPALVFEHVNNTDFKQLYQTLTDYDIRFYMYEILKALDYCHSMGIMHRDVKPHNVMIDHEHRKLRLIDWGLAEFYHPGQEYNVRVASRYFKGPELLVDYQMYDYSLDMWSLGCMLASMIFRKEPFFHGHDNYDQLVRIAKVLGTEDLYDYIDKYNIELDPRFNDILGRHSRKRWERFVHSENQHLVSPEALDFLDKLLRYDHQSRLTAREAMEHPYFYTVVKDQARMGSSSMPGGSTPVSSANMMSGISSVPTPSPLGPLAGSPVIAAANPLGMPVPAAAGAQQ
Sequence of Serine/threonine-protein kinase MARK1 (Homo sapiens) (Q9P0L2 whole entry, looked up): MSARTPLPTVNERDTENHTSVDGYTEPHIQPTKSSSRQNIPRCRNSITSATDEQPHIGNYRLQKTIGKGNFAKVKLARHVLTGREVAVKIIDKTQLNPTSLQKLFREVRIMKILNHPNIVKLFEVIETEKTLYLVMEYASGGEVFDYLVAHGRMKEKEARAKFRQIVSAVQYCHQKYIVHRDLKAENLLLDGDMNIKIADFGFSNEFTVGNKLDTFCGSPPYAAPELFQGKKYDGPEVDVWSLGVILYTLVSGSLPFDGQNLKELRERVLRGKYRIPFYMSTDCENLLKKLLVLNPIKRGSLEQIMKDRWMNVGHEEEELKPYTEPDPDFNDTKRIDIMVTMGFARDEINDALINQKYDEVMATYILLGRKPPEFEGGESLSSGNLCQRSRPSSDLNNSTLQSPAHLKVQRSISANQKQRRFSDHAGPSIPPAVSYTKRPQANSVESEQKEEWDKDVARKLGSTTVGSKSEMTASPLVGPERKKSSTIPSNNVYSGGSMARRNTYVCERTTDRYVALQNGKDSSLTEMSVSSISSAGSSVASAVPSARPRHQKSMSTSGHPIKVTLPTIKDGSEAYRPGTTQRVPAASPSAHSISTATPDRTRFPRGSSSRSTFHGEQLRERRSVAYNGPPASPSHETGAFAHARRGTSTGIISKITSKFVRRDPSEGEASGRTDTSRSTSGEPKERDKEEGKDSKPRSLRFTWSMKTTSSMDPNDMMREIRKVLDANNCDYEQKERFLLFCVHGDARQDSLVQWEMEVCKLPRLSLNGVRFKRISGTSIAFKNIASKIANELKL

Compound | residual activity [1] [%] | residual activity [2] [%] | residual activity [3] [%] | residual activity [4] [%] | IC50 [5] | residual activity [6] [%] | residual activity [7] [%] | residual activity [8] [%] | residual activity [9] [%] | residual activity [10] [%] | residual activity [11] [%] | residual activity [12] [%] | inhibition [13] [%] | residual activity [14] [%] | residual activity [15] [%] | inhibition [16] [%]
Cc1nc(C2CCN(C(=O)c3ccc(OC(F)(F)F)cc3N)CC2)c2ncc(N3CCN(C)CC3)cc2n1 [BAY-693] | 78 | 99 | 100 | 100 | 19.5 µM (not active) | 74 | 100 | 100 | 100 | 49 | 100 | 100 | -1.66 | 100 | 100 | -1.64
CN1CCN(c2cnc3c(C4CCN(C(=O)c5ccc(OC(F)(F)F)cc5N)CC4)ncnc3c2)CC1 [BAY-885] | 78 | 100 | 100 | 100 | > 30 µM (not active) | 93 | 100 | 100 | 98 | 100 | 100 | 100 | 13.2 | 100 | 100 | 0.38
